Source: article PMC11506356, “Selective Inhibition of Deamidated Triosephosphate Isomerase by Disulfiram, Curcumin, and Sodium Dichloroacetate: Synergistic Therapeutic Strategies for T-Cell Acute Lymphoblastic Leukemia in Jurkat Cells” (Biomolecules, 2024)

What was measured:
[1] = biological target: T1, deamidated triosephosphate isomerase (dTPI) (Homo sapiens, UniProt P60174, N16D); test: recombinant enzyme inactivation ([…] h, […] °C; coupled NADH assay), Ellman free-thiol quantification, ANS fluorescence; format: biochemical; conditions: 2 h; read-out: recombinant enzyme inactivation (2 h, 37 °C; coupled NADH assay), Ellman free-th
T1 construct: gene TPI1; recombinant human TPI, His-TEV tag removed
T1 sequence (P60174 2-249 N16D): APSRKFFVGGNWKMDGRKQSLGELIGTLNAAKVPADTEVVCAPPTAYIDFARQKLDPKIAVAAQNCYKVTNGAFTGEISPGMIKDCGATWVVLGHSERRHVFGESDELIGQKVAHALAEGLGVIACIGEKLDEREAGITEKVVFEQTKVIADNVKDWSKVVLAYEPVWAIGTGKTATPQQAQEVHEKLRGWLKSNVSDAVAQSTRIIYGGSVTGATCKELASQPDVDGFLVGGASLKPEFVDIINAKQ

[2] = biological target: T1, deamidated triosephosphate isomerase (dTPI); test: recombinant enzyme inactivation ([…] h, […] °C; coupled NADH assay), ANS fluorescence; format: biochemical; conditions: 2 h; read-out: recombinant enzyme inactivation (2 h, 37 °C; coupled NADH assay), ANS fluorescen

IC90 [2] [mM]	Structure (SMILES)	IC100 [1] [µM]
–	CCN(CC)C(=S)SSC(=S)N(CC)CC [DS, disulfiram]	250
~1.5	COc1cc(/C=C/C(=O)CC(=O)/C=C/c2ccc(O)c(OC)c2)ccc1O [CU, curcumin]	–
